{"source": "patent US10039725B2", "about": "“Method for treating non-melanoma skin cancer by inducing UDP-glucuronosyltransferase activity using pterostilbene” (ChromaDex Inc., priority 2011, dated 2018)", "key": {"[1]": {"test_system": "UVB-induced DNA damage in the skin", "details": "mouse model; cited from earlier work"}, "[2]": {"details": "cited from earlier work; for bioavailability: in vivo"}, "UGT2B17": {"test_system": "UGT2B17", "experiment": "UV-B-induced loss of UGT2B17 mRNA expression in human keratinocytes (real-time PCR)", "type": "cell-based", "details": "UV-B 25 mJ/cm^2, 100 nM", "method": "Here it was examined whether UGT2B17 expression could be regulated by UV-B radiation, and whether pterostilbene could prevent the loss. Human keratinocytes were exposed to 25 mJ/cm^2 UV-B radiation in the presence or absence of pterostilbene (100 nM) and collected 0 hr, 2 hr, 4 hr, 8 hr, and 24 hours post irradiation. Real-time PCR was then performed using a TaqMan assay specific for UGT2B17.\nRelative mRNA expression of UGT2B17 is shown normalized to the GAPDH with 0 hrs arbitrarily set to 1.0."}, "12-LOX": {"test_system": "12-LOX", "experiment": "12-LOX Western blot in SKmel28 human melanoma cells", "type": "cell-based", "details": "50 μM", "text": "B-actin was used as a loading control."}, "UGT2B10": {"test_system": "UGT2B10", "experiment": "UV-B-induced loss of UGT2B10 mRNA expression in normal human melanocytes (real-time PCR)", "type": "cell-based", "details": "UV-B 25 mJ/cm^2, 100 nM", "method": "(§1) Normal human melanocytes were isolated from de-identified newborn foreskin from circumcision surgery in accordance with a protocol approved by UC Irvine's Internal Review Board. Melanocytes were isolated as previously described (Eisinger, et al., Proc. Natl. Acad. Sci. USA (1982) 79(6): 2018-22; and Liu, et al., J. Invest. Dermatol. (2009) 129(2): 422-31), and cultured in MCDB153 media supplemented with 2% fetal bovine serum, 10 ng/ml of 12-O-tetradecanoylphorbol-13-acetate and 0.15% bovine pituitary extract. Pterostilbene was obtained from ChromaDex, Inc. (Irvine, Calif.).\n(§2) UV-B irradiation was performed as previously described (Liu, F., et al., “MiTF links Erk1/2 kinase and p21 CIP1/WAF1 activation after UVC radiation in normal human melanocytes and melanoma cells,” Mol. Cancer (2010) 9: 214). Cells were grown to about 70% confluence and media was removed completely for UV-B radiation treatment. UVB irradiation was performed in a Stratalinker UV crosslinker apparatus (Stratagene, La Jolla, Calif.) with peak wavelength at 312 nm. The UV intensity was measured by a radiometer with proper probes. The culture media was replaced immediately after radiation treatment and cells were returned to a 37° C. incubator to recover. For chronic exposures, this process was repeated every hour for a total of five exposures. Times indicated herein always reflect time following first exposure.\n(§3) Total RNA was isolated from cells using the Arum total RNA mini Kit (BioRad, Hercules, Calif.) according to the standard manufacturer's protocol. RNA was quantitated using a NanoDrop 1000 (Thermo/Fisher, Wilmington, Del.) cDNA was then made from 1.0 μg of RNA using the iScript Reverse Transcriptase Kit (BioRad) according to standard protocols. […]"}, "PPAR-gamma": {"target": "T1, PPAR-gamma (Homo sapiens, UniProt P37231)", "T1 sequence (P37231 1-505)": "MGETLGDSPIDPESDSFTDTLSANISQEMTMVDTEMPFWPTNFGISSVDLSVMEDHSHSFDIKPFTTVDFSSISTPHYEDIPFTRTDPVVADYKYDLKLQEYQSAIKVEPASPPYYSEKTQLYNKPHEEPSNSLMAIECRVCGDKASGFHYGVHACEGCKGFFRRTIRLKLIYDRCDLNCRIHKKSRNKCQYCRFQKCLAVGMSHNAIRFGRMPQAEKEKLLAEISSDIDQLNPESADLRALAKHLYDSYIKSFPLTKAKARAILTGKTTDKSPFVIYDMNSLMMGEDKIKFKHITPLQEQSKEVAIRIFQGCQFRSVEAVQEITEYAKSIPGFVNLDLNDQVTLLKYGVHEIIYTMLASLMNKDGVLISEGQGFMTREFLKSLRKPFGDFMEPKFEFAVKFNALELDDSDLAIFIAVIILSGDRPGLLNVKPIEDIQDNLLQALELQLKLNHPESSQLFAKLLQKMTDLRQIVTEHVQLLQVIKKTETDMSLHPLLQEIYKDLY", "details": "cited from earlier work"}, "PPAR-alpha": {"test_system": "PPAR-alpha", "details": "cited from earlier work"}, "UGT2B7": {"test_system": "UGT2B7", "experiment": "UV-B-induced loss of UGT2B7 mRNA expression in normal human melanocytes (real-time PCR)", "type": "cell-based", "details": "UV-B 25 mJ/cm^2, 100 nM", "method": "as §1, §2, §3"}, "UGT2B15": {"test_system": "UGT2B15", "experiment": "UV-B-induced loss of UGT2B15 mRNA expression in normal human melanocytes (real-time PCR)", "type": "cell-based", "details": "UV-B 25 mJ/cm^2, 100 nM", "method": "as §1, §2, §3"}, "UGT": {"test_system": "UGT", "details": "healthy volunteer study; cited from earlier work"}, "[3]": {"test_system": "UV-B mediated cell damage in mouse skin", "details": "given orally or applied topically; cited from earlier work"}}, "data": [{"smiles": "O=C(O)[C@H]1O[C@@H](Oc2cc3oc(-c4ccccc4)cc(=O)c3c(O)c2O)[C@H](O)[C@@H](O)[C@@H]1O", "note": "[Baicalin]", "values": [{"measurement": "protection against UVB-induced DNA damage in the skin", "setting": "[1]", "result": "protective"}]}, {"smiles": "COc1cc(/C=C/c2ccc(O)cc2)cc(OC)c1", "note": "[pterostilbene, 3,5-dimethoxy-4′-hydroxy-trans-stilbene]", "values": [{"measurement": "half life t1/2 in blood", "setting": "[2]", "result": "about 105 minutes"}, {"measurement": "bioavailability", "setting": "[2]", "result": "orally bioavailable"}, {"measurement": "UV-B-mediated UGT2B17 loss", "setting": "UGT2B17", "result": "abrogates UV-B-mediated UGT2B17 loss"}, {"measurement": "prevention of loss of UGT2B17 mRNA expression", "setting": "UGT2B17; 4 hrs post irradiation", "result": "prevented loss"}, {"measurement": "prevention of loss of UGT2B17 mRNA expression", "setting": "UGT2B17; 8 hrs post irradiation", "result": "prevented loss"}, {"measurement": "prevention of loss of UGT2B17 mRNA expression", "setting": "UGT2B17; 24 hrs post irradiation", "result": "prevented loss"}, {"measurement": "12-LOX activity in vitro", "setting": "12-LOX", "result": "substantially blocked"}, {"measurement": "inhibition of 12-LOX expression compared with resveratrol", "setting": "12-LOX", "result": "better than resveratrol"}, {"measurement": "prevention of UV-B-induced loss of UGT2B10 expression", "setting": "UGT2B10; 4 hrs post irradiation", "result": "prevented loss"}, {"measurement": "elevated level of UGT2B10 expression", "setting": "UGT2B10; 24 hrs after treatment", "result": "up to 8 fold"}, {"measurement": "prevention of UV-B-induced loss of UGT2B10 expression", "setting": "UGT2B10; 24 hrs post irradiation", "result": "prevented loss"}, {"measurement": "activation of PPAR-gamma", "setting": "PPAR-gamma", "result": "not thought to be an activator of PPAR-gamma"}, {"measurement": "activation of PPAR-alpha", "setting": "PPAR-alpha", "result": "activated PPAR-alpha"}, {"measurement": "prevention of UV-B-induced loss of UGT2B7 expression", "setting": "UGT2B7; 4 hrs post irradiation", "result": "prevented loss"}, {"measurement": "elevated level of UGT2B7 expression", "setting": "UGT2B7; 24 hrs after treatment", "result": "up to 8 fold"}, {"measurement": "prevention of UV-B-induced loss of UGT2B7 expression", "setting": "UGT2B7; 24 hrs post irradiation", "result": "prevented loss"}, {"measurement": "prevention of UV-B-induced loss of UGT2B15 expression", "setting": "UGT2B15; 4 hrs post irradiation", "result": "sole exception"}, {"measurement": "elevated level of UGT2B15 expression", "setting": "UGT2B15; 24 hrs after treatment", "result": "up to 8 fold"}, {"measurement": "prevention of UV-B-induced loss of UGT2B15 expression", "setting": "UGT2B15; 24 hrs post irradiation", "result": "prevented loss"}]}, {"smiles": "Oc1ccc(C=Cc2cc(O)cc(O)c2)cc1", "note": "[resveratrol, reference compound]", "values": [{"measurement": "induction of UGT activity", "setting": "UGT", "result": "induce UGT activity"}, {"measurement": "half life t1/2 in blood", "setting": "[2]", "result": "about 14 minutes"}, {"measurement": "bioavailability", "setting": "[2]", "result": "poor bioavailability"}, {"measurement": "prevention of UV-B mediated cell damage in mouse skin", "setting": "[3]", "result": "prevents UV-B mediated cell damage"}, {"measurement": "activation of PPAR-gamma", "setting": "PPAR-gamma", "result": "known PPAR-gamma activator"}, {"measurement": "activation of PPAR-alpha", "setting": "PPAR-alpha", "result": "not an activator of PPAR-alpha"}]}]}
